According to patent US20260184675A1, “CHIRAL ISOMERIC SULFITE COMPOUND AND APPLICATION THEREOF” (Chengdu Hanova BioSciences Co., Ltd, priority 2024, published 2026):

Key:
Assay type in all cases: in vivo
[1] = test system: eggs of Tetranychus urticae; test: Effect on hatching of eggs of Tetranychus urticae, leaf disc method; conditions: 5 ppm; for Hatching rate (%): 5 days after insecticide delivery
Experimental: (§1) • (1) Preparation of leaf discs containing eggs: 20 female adult mites of Tetranychus cinnabarinus were transferred onto leaf discs of Vicia faba with a diameter of 2.0 cm (with wetted filter paper at the bottom), then covered it with a lidded culture dish and cultivated under moisturizing conditions, the adult mites were removed within 36 hours and microscopic examination and counting were performed on leaf discs containing eggs. • (2) Investigation of egg population base: Before pesticide soaking, a microscopic examination was conducted on the egg basic number of each leaf disc, with 2 replicates set for each treatment. • (3) Pesticide soaking treatment: The leaf butterflies loaded with mite eggs were soaked in clear water and sulfite compounds for 10 seconds, respectively, then taken out and cultivated under moisturizing conditions. Each treatment should be repeated for no less than 3 times. • (4) Cultivation and observation: The […] were cultivated under normal conditions. Five days after insecticide delivery, the hatching status of mite eggs was investigated. • Note: The temperature and humidity conditions of the constant temperature and humidity incubator after the treatment should be controlled so as to avoid excessive temperature differences, which may cause generation and dripping of condensate water in the culture dish, resulting in abnormal death of eggs due to soaking in water; it is also necessary to ensure sufficient strong ambient light, without directing irradiating the leaves. • (5) Survey of Results: The experimental materials of each treatment group were regularly hydrated and moisturized, and the hatching of eggs was observed. On the 7th day after insecticide delivery, the number of hatched eggs for each treatment was recorded, and the survey of results was recorded in the original notebook. According to the experimental requirements and characteristics of agents, the survey time can be shortened or extended.
(§2) • 1) Surveying and recording the number of hatched eggs for each treatment. • 2) Photographing and recording whether there was any pesticide damage to the leaf discs of Vicia faba. • 3) Recording the developmental status of experimental mite eggs, behavior status of nymph mites, including abnormal phenomena such as delayed or stopped development of mite eggs, difficulty in breaking hull for nymph mites, or painful struggles after hatching, etc. • (6) Calculation method: Based on the survey data, the prevention and control effect of each treatment was calculated according to the following formula, and the calculation results were kept to two decimal places.
This test adopted the method in Test Example 1 of technical section, mainly used leaf disc method to explore the inhibitory effect on hatching of eggs of Tetranychus urticae by compounds 1-(S,S), 1-(S,R), 1-(R,R), 1-(R,S), 1′-(S,S), 1′-(S,R), 1′-(R,R), 1′-(R,S), compound 1, compound 1′, S-10, R-10, S-10′, R-10′, compound 10, compound 10′, compound 19-(S,S), 19-(S,R), 19-(R,R), 19-(R,S), 19′-(S,S), 19′-(S,R), 19′-(R,R), 19′-(R,S), compound 19, and compound 19′. The concentration of all compounds was 5 ppm.

[2] = test system: pest eggs of Tetranychus cinnabarinus; test: Effect on hatching of pest eggs of Tetranychus cinnabarinus, leaf disc method; conditions: for Hatching rate (%): 7 days after insecticide delivery
Experimental: as §1, with “extended. • 1) Surveying and recording the number of hatched eggs for each treatment. • 2) Photographing and recording whether there was any pesticide damage to the leaf discs of Vicia faba. • 3) Recording the developmental status of experimental mite eggs, behavior status of nymph mites, including abnormal phenomena such as delayed or stopped development of mite eggs, difficulty in breaking hull for nymph mites, or painful struggles after hatching, etc. • (6) Calculation method: Based on the survey data, the prevention and control effect of each treatment was calculated according to the following formula, and the calculation results were kept to two decimal places. [formula] [formula] [table]” for “extended.”

eggs of Thrips = test: Effect on hatching of eggs of Thrips, leaf disc method; conditions: 100 ppm; for Hatching rate (%): 5 days after insecticide delivery
Experimental: as §1, §2
This test adopted the method in Test Example 1 of technical section, mainly used leaf disc method to explore the inhibitory effect on hatching of eggs of Thrips by 1-(S,S), 1-(S,R), 1-(R,R), 1-(R,S), 1′-(S,S), 1′-(S,R), 1′-(R,R), 1′-(R,S), compound 1, compound 1′, S-10, R-10, S-10′, R-10′, compound 10, compound 10′, compound 19-(S,S), 19-(S,R), 19-(R,R), 19-(R,S), 19′-(S,S), 19′-(S,R), 19′-(R,R), 19′-(R,S), compound 19, and compound 19′. The concentration of all compounds was 100 ppm.

[3] = Replicate 1, listed as 1′-(S, R)
[4] = Replicate 2, listed as 1′-(S, R)
[5] = Replicate 3, listed as 1′-(S, R)
[6] = Replicate 1, listed as 1′-(S, S)
[7] = Replicate 2, listed as 1′-(S, S)
[8] = Replicate 3, listed as 1′-(S, S)
[9] = Replicate 1, listed as 19-(R, R)
[10] = Replicate 2, listed as 19-(R, R)
[11] = Replicate 3, listed as 19-(R, R)

| Compound | Hatching rate (%) ([2]; 0.25 mg/L, Replicate 1) | Hatching rate (%) ([2]; 0.25 mg/L, Replicate 2) | Number of hatched larvae 7 days after insecticide delivery ([2]; 0.25 mg/L, Replicate 1) | Number of hatched larvae 7 days after insecticide delivery ([2]; 0.25 mg/L, Replicate 2) | Hatching rate (%) ([2]; 0.5 mg/L, Replicate 1) | Hatching rate (%) ([2]; 0.5 mg/L, Replicate 2) | Number of hatched larvae 7 days after insecticide delivery ([2]; 0.5 mg/L, Replicate 1) | Number of hatched larvae 7 days after insecticide delivery ([2]; 0.5 mg/L, Replicate 2) | Hatching rate (%) ([2]; 1 mg/L, Replicate 1) | Hatching rate (%) ([2]; 1 mg/L, Replicate 2) | Number of hatched larvae 7 days after insecticide delivery ([2]; 1 mg/L, Replicate 1) | Number of hatched larvae 7 days after insecticide delivery ([2]; 1 mg/L, Replicate 2) | also measured |
| --- | --- | --- | --- | --- | --- | --- | --- | --- | --- | --- | --- | --- | --- |
| CC(COc1ccc(Cl)cc1Cl)OS(=O)OCCF [1′-(S,R)] | 42.86 | 44.83 | 28 | 32 | 8.89 | 3.23 | 41 | 60 | 0.00 | 0.00 | 69 | 78 | inhibitory activity on the hatching of eggs of Tetranychus urticae (in words) [1]: strong inhibitory activities; Hatching rate (%) [1, 3]: 0.00%; Hatching rate (%) [1, 4]: 0.00%; Number of hatched larvae 5 days after insecticide delivery [1, 3]: 0; Number of hatched larvae 5 days after insecticide delivery [1, 4]: 0; inhibitory effect on the hatching of pest eggs of Tetranychus cinnabarinus (in words) ([2]; 1 ppm): excellent inhibitory effects; inhibitory activity on the hatching of eggs of Thrips (in words) (eggs of Thrips): strong inhibitory activities; Hatching rate (%) (eggs of Thrips; [3]): 0.00%; Hatching rate (%) (eggs of Thrips; [4]): 0.00%; Hatching rate (%) (eggs of Thrips; [5]): 0.00%; Number of hatched larvae 5 days after insecticide delivery (eggs of Thrips; [3]): 0; Number of hatched larvae 5 days after insecticide delivery (eggs of Thrips; [4]): 0; Number of hatched larvae 5 days after insecticide delivery (eggs of Thrips; [5]): 0 |
| CC(COc1ccc(Cl)cc1Cl)OS(=O)OCCF [1′-(S,S)] | 64.58 | 69.57 | 17 | 14 | 27.59 | 12.00 | 42 | 66 | 16.36 | 14.63 | 46 | 35 | Hatching rate (%) [1, 6]: 20.63%; Hatching rate (%) [1, 7]: 16.22%; Number of hatched larvae 5 days after insecticide delivery [1, 6]: 13; Number of hatched larvae 5 days after insecticide delivery [1, 7]: 12; Hatching rate (%) (eggs of Thrips; [6]): 14.10%; Hatching rate (%) (eggs of Thrips; [7]): 14.63%; Hatching rate (%) (eggs of Thrips; [8]): 16.04%; Number of hatched larvae 5 days after insecticide delivery (eggs of Thrips; [6]): 11; Number of hatched larvae 5 days after insecticide delivery (eggs of Thrips; [7]): 18; Number of hatched larvae 5 days after insecticide delivery (eggs of Thrips; [8]): 17 |
| CCC(COc1ccc(Cl)cc1Cl)OS(=O)OCCF [19-(R,R)] | 75.00 | 76.00 | 18 | 18 | 36.23 | 36.00 |  | 34 | 14.89 | 16.67 | 40 | 55 | Hatching rate (%) [1, 9]: 17.98%; Hatching rate (%) [1, 10]: 17.92%; Number of hatched larvae 5 days after insecticide delivery [1, 9]: 16; Number of hatched larvae 5 days after insecticide delivery [1, 10]: 19; Hatching rate (%) (eggs of Thrips; [9]): 12.63%; Hatching rate (%) (eggs of Thrips; [10]): 13.46%; Hatching rate (%) (eggs of Thrips; [11]): 13.04%; Number of hatched larvae 5 days after insecticide delivery (eggs of Thrips; [9]): 12; Number of hatched larvae 5 days after insecticide delivery (eggs of Thrips; [10]): 14; Number of hatched larvae 5 days after insecticide delivery (eggs of Thrips; [11]): 15 |
